Experiments:
CDK9 = target: T1, CDK9 (Homo sapiens, UniProt P50750); test: CDK protein degradation activity (Western blotting), CDK9; format: cell-based; settings: MDA-MB-231 cells, 16 hours, Western blot
T1 construct: endogenous in cells; host or cells: MDA-MB-231
Method in brief: (§1)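 MDA-MB-231; cmpd 100 nM / 1 μM / 10 μM final vs DMSO, 16 h. Triton X-100 lysates (pH 7.5, phosphatase/protease inhibitors) → SDS-PAGE → Western blot, anti-CDK2, anti-CDK9, tubulin loading control; densitometry.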

CDK2 = target: T2, CDK2 (Homo sapiens, UniProt P24941); test: CDK protein degradation activity (Western blotting), CDK2; format: cell-based; settings: MDA-MB-231 cells, 16 hours, Western blot
T2 construct: endogenous in cells; host or cells: MDA-MB-231
Method in brief: as §1

T1 sequence (P50750 whole entry): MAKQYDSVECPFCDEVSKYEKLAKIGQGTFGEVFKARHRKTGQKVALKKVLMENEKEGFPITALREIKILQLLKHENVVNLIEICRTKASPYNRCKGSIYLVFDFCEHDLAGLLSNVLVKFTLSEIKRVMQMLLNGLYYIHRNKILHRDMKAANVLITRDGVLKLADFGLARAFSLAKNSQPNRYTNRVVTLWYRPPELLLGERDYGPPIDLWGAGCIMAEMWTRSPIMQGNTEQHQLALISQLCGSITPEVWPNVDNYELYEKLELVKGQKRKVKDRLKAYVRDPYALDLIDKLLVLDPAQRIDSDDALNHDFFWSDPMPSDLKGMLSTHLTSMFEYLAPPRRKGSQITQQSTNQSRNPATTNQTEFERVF

| SMILES | Enzyme degradation CDK9 (% remaining) @ 0.1 μM (CDK9) | Enzyme degradation CDK9 (% remaining) @ 1 μM (CDK9) | Enzyme degradation CDK9 (% remaining) @ 10 μM (CDK9) | Enzyme degradation CDK2 (% remaining) @ 0.1 μM (CDK2) | Enzyme degradation CDK2 (% remaining) @ 1 μM (CDK2) | Enzyme degradation CDK2 (% remaining) @ 10 μM (CDK2) |
| --- | --- | --- | --- | --- | --- | --- |
| O=C1CCC(N2C(=O)c3cc(F)c(N4CCC5(CC4)CC(N4CCN(c6ccc(Nc7ncnc8c7ncn8[C@H]7C[C@@H](NC(=O)c8c(Cl)cccc8Cl)C7)cc6)CC4)C5)cc3C2=O)C(=O)N1 (stereo partly drawn) [Compound 316, 2,6-dichloro-N-((1s,3s)-3-(6-((4-(4-(7-(2-(2,6-dioxopiperidin-3-yl)-6-fluoro-1,3-dioxoisoindolin-5-yl)-7-azaspiro[3.5]nonan-2-yl)piperazin-1-yl)phenyl)amino)-9H-purin-9-yl)cyclobutyl)benzamide] | 0/0/0% | 0/0/0% | 0/0/0% | 30% | 30% | 50% |
| O=C1CC[C@H](n2nnc3ccc(N4CCC5(CC4)CC(N4CCN(c6ccc(Nc7ncnc8c7ncn8[C@H]7C[C@@H](NC(=O)c8c(Cl)cccc8Cl)C7)cc6)CC4)C5)cc3c2=O)C(=O)N1 [Compound 317, 2,6-dichloro-N-((1s,3s)-3-(6-((4-(4-(7-(3-(2,6-dioxopiperidin-3-yl)-4-oxo-3,4-dihydrobenzo[d][1,2,3]triazin-6-yl)-7-azaspiro[3.5]nonan-2-yl)piperazin-1-yl)phenyl)amino)-9H-purin-9-yl)cyclobutyl)benzamide] | 0/0/0% | 0/0/0% | 0/0/0% | 10/10/10% | 10/10/10% | 10/10/10% |
| O=C1CC[C@H](N2C(=O)c3ccc(NCC(=O)N4CCC5(CC4)CC(N4CCN(c6ccc(Nc7ncnc8c7ncn8C7CC(NC(=O)c8c(Cl)cccc8Cl)C7)cc6)CC4)C5)cc3C2=O)C(=O)N1 (stereo partly drawn) [Compound 318, 2,6-dichloro-N-((1s,3s)-3-(6-((4-(4-(7-((2-(2,6-dioxopiperidin-3-yl)-1,3-dioxoisoindolin-5-yl)glycyl)-7-azaspiro[3.5]nonan-2-yl)piperazin-1-yl)phenyl)amino)-9H-purin-9-yl)cyclobutyl)benzamide] | 0/0/0% | 0/0/0% | 0/0/0% | 20% | 20% | 40% |
| O=C1CC[C@H](n2nnc3ccc(N4CCN(CC5CCN(c6ccc(Nc7ncnc8c7ncn8C7CC(NC(=O)Cc8ccccc8)C7)cc6)CC5)CC4)cc3c2=O)C(=O)N1 (stereo partly drawn) [Compound 320, N-((1s,3s)-3-(6-((4-(4-((4-(3-(2,6-dioxopiperidin-3-yl)-4-oxo-3,4-dihydrobenzo[d][1,2,3]triazin-6-yl)piperazin-1-yl)methyl)piperidin-1-yl)phenyl)amino)-9H-purin-9-yl)cyclobutyl)-2-phenylacetamide] | 80% | 10% | 10% | 20% | 0% | 0% |
| O=C1CC[C@H](N2C(=O)c3cc(F)c(N4CCC(CCN5CCN(c6ccc(Nc7ncnc8c7ncn8C7CC(NC(=O)Cc8ccccc8)C7)cc6)CC5)CC4)cc3C2=O)C(=O)N1 (stereo partly drawn) [Compound 323, N-((1s,3s)-3-(6-((4-(4-(2-(1-(2-(2,6-dioxopiperidin-3-yl)-6-fluoro-1,3-dioxoisoindolin-5-yl)piperidin-4-yl)ethyl)piperazin-1-yl)phenyl)amino)-9H-purin-9-yl)cyclobutyl)-2-phenylacetamide] | 0/0/0% | 0/0/0% | 0/0/0% | 60% | 50% | 40% |
| O=C1CC[C@H](n2nnc3ccc(N4CCC(CCN5CCN(c6ccc(Nc7ncnc8c7ncn8C7CC(NC(=O)Cc8ccccc8)C7)cc6)CC5)CC4)cc3c2=O)C(=O)N1 (stereo partly drawn) [Compound 324, N-((1s,3s)-3-(6-((4-(4-(2-(1-(3-(2,6-dioxopiperidin-3-yl)-4-oxo-3,4-dihydrobenzo[d][1,2,3]triazin-6-yl)piperidin-4-yl)ethyl)piperazin-1-yl)phenyl)amino)-9H-purin-9-yl)cyclobutyl)-2-phenylacetamide] | 0/0/0% | 0/0/0% | 0/0/0% | 70% | 80% | 10% |
| O=C1CC[C@H](N2C(=O)c3ccc(OCC(=O)N4CCN(CC5CCN(c6ccc(Nc7ncnc8c7ncn8C7CC(NC(=O)c8c(Cl)cccc8Cl)C7)cc6)CC5)CC4)cc3C2=O)C(=O)N1 (stereo partly drawn) [Compound 325, 2,6-dichloro-N-((1s,3s)-3-(6-((4-(4-((4-(2-((2-(2,6-dioxopiperidin-3-yl)-1,3-dioxoisoindolin-5-yl)oxy)acetyl)piperazin-1-yl)methyl)piperidin-1-yl)phenyl)amino)-9H-purin-9-yl)cyclobutyl)benzamide] | 80% | 0% | 0% | 40% | 60% | 60% |
| O=C1CC[C@H](N2C(=O)c3ccc(N4CC(C(=O)N5CCC(CCN6CCN(c7ccc(Nc8ncnc9c8ncn9C8CC(NC(=O)Cc9ccccc9)C8)cc7)CC6)CC5)C4)cc3C2=O)C(=O)N1 (stereo partly drawn) [Compound 328, N-((1s,3s)-3-(6-((4-(4-(2-(1-(1-(2-(2,6-dioxopiperidin-3-yl)-1,3-dioxoisoindolin-5-yl)azetidin-3-carbonyl)piperidin-4-yl)ethyl)piperazin-1-yl)phenyl)amino)-9H-purin-9-yl)cyclobutyl)-2-phenylacetamide] | 0/0/0% | 0/0/0% | 0/0/0% | 40% | 50% | 40% |
| O=C1CC[C@H](N2C(=O)c3ccc(N4CC(C(=O)N5CCC(CN6CCN(c7ccc(Nc8ncnc9c8ncn9C8CC(NC(=O)Cc9ccccc9)C8)cc7)CC6)CC5)C4)cc3C2=O)C(=O)N1 (stereo partly drawn) [Compound 329, N-((1s,3s)-3-(6-((4-(4-((1-(1-(2-(2,6-dioxopiperidin-3-yl)-1,3-dioxoisoindolin-5-yl)azetidin-3-carbonyl)piperidin-4-yl)methyl)piperazin-1-yl)phenyl)amino)-9H-purin-9-yl)cyclobutyl)-2-phenylacetamide] | 10% | 0% | 0% | 50% | 50% | 60% |

Results, then the compound that gave them:

| Enzyme degradation CDK9 (% remaining) @ 0.1 μM (CDK9) | Enzyme degradation CDK9 (% remaining) @ 1 μM (CDK9) | Enzyme degradation CDK9 (% remaining) @ 10 μM (CDK9) | Enzyme degradation CDK2 (% remaining) @ 0.1 μM (CDK2) | Enzyme degradation CDK2 (% remaining) @ 1 μM (CDK2) | Enzyme degradation CDK2 (% remaining) @ 10 μM (CDK2) | SMILES |
| --- | --- | --- | --- | --- | --- | --- |
| 70% | 0% | 0% | 10% | 0% | 0% | O=C1CC[C@H](N2C(=O)c3ccc(N4CCN(CC5CCN(c6ccc(Nc7ncnc8c7ncn8C7CC(NC(=O)Cc8ccccc8)C7)cc6)CC5)CC4)cc3C2=O)C(=O)N1 (stereo partly drawn) [Compound 319, N-((1s,3s)-3-(6-((4-(4-((4-(2-(2,6-dioxopiperidin-3-yl)-1,3-dioxoisoindolin-5-yl)piperazin-1-yl)methyl)piperidin-1-yl)phenyl)amino)-9H-purin-9-yl)cyclobutyl)-2-phenylacetamide] |
| 20% | 10% | 20% | 20% | 10% | 20% | O=C1CC[C@H](N2C(=O)c3cccc(NCC(=O)N4CCN(CC5CCN(c6ccc(Nc7ncnc8c7ncn8[C@H]7C[C@@H](NC(=O)Cc8ccccc8)C7)cc6)CC5)CC4)c3C2=O)C(=O)N1 [Compound 322, N-((1s,3s)-3-(6-((4-(4-((4-((2-(2,6-dioxopiperidin-3-yl)-1,3-dioxoisoindolin-4-yl)glycyl)piperazin-1-yl)methyl)piperidin-1-yl)phenyl)amino)-9H-purin-9-yl)cyclobutyl)-2-phenylacetamide] |
| 80% | 10% | 0% | 20% | 0% | 0% | O=C1CC[C@H](N2C(=O)c3cccc(OCC(=O)N4CCN(CC5CCN(c6ccc(Nc7ncnc8c7ncn8C7CC(NC(=O)Cc8ccccc8)C7)cc6)CC5)CC4)c3C2=O)C(=O)N1 (stereo partly drawn) [Compound 326, N-((1s,3s)-3-(6-((4-(4-((4-(2-((2-(2,6-dioxopiperidin-3-yl)-1,3-dioxoisoindolin-4-yl)oxy)acetyl)piperazin-1-yl)methyl)piperidin-1-yl)phenyl)amino)-9H-purin-9-yl)cyclobutyl)-2-phenylacetamide] |
| 0/0/0% | 0/0/0% | 0/0/0% | 20% | 0% | 0% | O=C1CCC(N2C(=O)c3ccc(N4CCC(CCN5CCN(c6ccc(Nc7ncnc8c7ncn8[C@H]7C[C@@H](NC(=O)Cc8ccccc8)C7)cc6)CC5)CC4)cc3C2=O)C(=O)N1 (stereo partly drawn) [Compound 327, N-((1s,3s)-3-(6-((4-(4-(2-(1-(2-(2,6-dioxopiperidin-3-yl)-1,3-dioxoisoindolin-5-yl)piperidin-4-yl)ethyl)piperazin-1-yl)phenyl)amino)-9H-purin-9-yl)cyclobutyl)-2-phenylacetamide] |

Reference: patent publication US20260125382A1, “COMPOUNDS FOR INHIBITING OR DEGRADING CDK2 AND/OR CDK9 AND MEDICINAL USE THEREOF” (KOREA RESEARCH INSTITUTE OF CHEMICAL TECHNOLOGY, priority 2022, published 2026)
